Test results published in PubChem BioAssay (NCI).
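Interpolation was linear, between the two tested concentrations surrounding the appropriate level; five concentrations were tested over 48 hours in 96-well plates. At the TGI there is no net growth.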

Experiments:
Test in all cases: NCI tumour cell line growth inhibition, 48 h
HCT-116 colon = test system: HCT-116 colon
CCRF-CEM leukemia = test system: CCRF-CEM leukemia
HL-60(TB) leukemia = test system: HL-60(TB) leukemia
HS 578T breast = test system: HS 578T breast
LOX IMVI melanoma = test system: LOX IMVI melanoma
COLO 205 colon = test system: COLO 205 colon
M14 melanoma = test system: M14 melanoma
MDA-N = test system: MDA-N
A498 renal = test system: A498 renal
MCF7 breast = test system: MCF7 breast
HCT-15 colon = test system: HCT-15 colon
MDA-MB-231 breast = test system: MDA-MB-231 breast
OVCAR-4 ovarian = test system: OVCAR-4 ovarian
MOLT-4 leukemia = test system: MOLT-4 leukemia
UACC-257 melanoma = test system: UACC-257 melanoma
SK-MEL-28 melanoma = test system: SK-MEL-28 melanoma
UO-31 renal = test system: UO-31 renal
NCI-H522 lung = test system: NCI-H522 lung
IGROV1 ovarian = test system: IGROV1 ovarian
MDA-MB-435 = test system: MDA-MB-435
SF-268 CNS = test system: SF-268 CNS
MALME-3M melanoma = test system: MALME-3M melanoma
EKVX NSCLC = test system: EKVX NSCLC
HOP-62 NSCLC = test system: HOP-62 NSCLC
786-0 renal = test system: 786-0 renal
ACHN renal = test system: ACHN renal
HOP-92 NSCLC = test system: HOP-92 NSCLC
RXF 393 renal = test system: RXF 393 renal
SK-MEL-5 melanoma = test system: SK-MEL-5 melanoma
TK-10 renal = test system: TK-10 renal
U251 CNS = test system: U251 CNS
BT-549 breast = test system: BT-549 breast
SF-539 CNS = test system: SF-539 CNS
SN12C renal = test system: SN12C renal
SNB-75 CNS = test system: SNB-75 CNS
SW-620 colon = test system: SW-620 colon
DU-145 prostate = test system: DU-145 prostate
A549 NSCLC = test system: A549 NSCLC
SK-MEL-2 melanoma = test system: SK-MEL-2 melanoma
NCI/ADR-RES ovarian = test system: NCI/ADR-RES ovarian
NCI-H23 lung = test system: NCI-H23 lung
T-47D breast = test system: T-47D breast
NCI-H460 lung = test system: NCI-H460 lung
CAKI-1 renal = test system: CAKI-1 renal
KM12 colon = test system: KM12 colon
OVCAR-5 ovarian = test system: OVCAR-5 ovarian
HT29 colon = test system: HT29 colon
SNB-19 CNS = test system: SNB-19 CNS
PC-3 prostate = test system: PC-3 prostate
HCC-2998 colon = test system: HCC-2998 colon
NCI-H226 lung = test system: NCI-H226 lung
OVCAR-8 ovarian = test system: OVCAR-8 ovarian
UACC-62 melanoma = test system: UACC-62 melanoma
SF-295 CNS = test system: SF-295 CNS
SR leukemia = test system: SR leukemia
OVCAR-3 ovarian = test system: OVCAR-3 ovarian
K-562 leukemia = test system: K-562 leukemia

Measured: TGI

COc1ccc(-c2n[nH]c3nc4ccccc4n3c2=O)cc1
not listed: UACC-62 melanoma | SF-295 CNS | SR leukemia | OVCAR-3 ovarian | K-562 leukemia
> 100 µM: all other assays above

CN(C(=O)C12C3(C(=O)O)C4C5(C(=O)O)C3C1(C(=O)O)C5C42C(=O)O)C(C)(C)C (configuration not stated)
not listed: MALME-3M melanoma | NCI-H226 lung
> 100 µM: all other assays above
